Structure (SMILES)	melting point
NS(=O)(=O)c1cccc(-c2cc(-c3nc(-c4ccc(F)c(F)c4)cc(C(F)(F)F)n3)ccn2)c1	234 °C
CC(CN1CCC(NC(=O)C2CC2)CC1)c1ccc(C(=O)c2ccccc2)cc1 (stereo unspecified)	159 to 160 °C
O=C(O)C=CC=CCS(=O)(=O)c1ccccc1	148 to 150 °C
CCCN(CC)S(=O)(=O)NC(=S)N1CC(c2ccccc2)C(c2ccc(Cl)cc2)=N1 (stereo unspecified)	144 to 146 °C
CN1CCC(Oc2ccccn2)(c2ccccc2)CC1	95 to 96 °C
COc1cc(C(=O)N2Cc3ccc(C(=O)NCc4ccc(Cl)cc4)n3Cc3ccccc32)ccc1-c1ccccc1C	218 to 219 °C
Oc1ccc(CCC(CCc2ccc(O)cc2)(c2ccc(O)cc2)c2ccc(O)cc2)cc1	252 °C
CC(C)OC(=O)NCNCN=O	66 to 67 °C
Cc1ccc(-c2cc3c(s2)CCCC(C(=O)Nc2ccc(CN(C)C4CCOCC4)cc2)=C3)cc1	201 to 203 °C
C=CCC(O)(Cn1cncn1)c1ccc(Cl)cc1Cl (stereo unspecified)	101 °C
CCCCCCCCCCCCCCCCCCSCCCCCCCCCCC(N)=O	108 °C
CCCCCCCNC(=O)Nc1ccccc1C(=O)Nc1ccccn1	118 °C
NS(=O)(=O)c1c(Cl)cccc1Cn1cncn1	175 to 178 °C
COc1ccccc1NC(=O)c1ccccc1CN1C(=O)C2(COc3cc4c(cc32)CCO4)c2ccccc21 (stereo unspecified)	172 to 174 °C
C=C(c1ccn[nH]1)c1ccc(OCC(=O)OCC)c(Cl)c1Cl	110 to 112 °C
O=C(C1CN(S(=O)(=O)c2ccc3cc(Br)ccc3c2)CCN1C(=O)C1CCN(c2ccncc2)CC1)N1CCOCC1 (stereo unspecified)	235 to 237 °C
Cc1ccc(-c2[nH]nc3c2C(=O)c2c(NC(N)=O)cccc2-3)s1	> 280 °C
CCC1(CC)C(=O)N(CC(O)Cc2cc(C)c(O)c(C(C)(C)C)c2)C(=O)N(CC(O)Cc2cc(C)c(O)c(C(C)(C)C)c2)C1=O (stereo unspecified)	147 to 148 °C
Cc1nn(C)c(C(=O)N(C)C)c1Nc1ccccc1[N+](=O)[O-]	144 to 146 °C
Cc1cc(-c2nc3cccnn3c2-c2ccnc(NC(=O)c3ccc(C(F)(F)F)nc3)c2)ccc1F	225 to 226 °C
O=C(C1CCN(c2ccncc2)CC1)N1CCN(Cc2ccc(Br)cc2)CC1	148 to 149 °C
NNc1nccc(-c2ccc(OC3CCOCC3)c(Cl)c2)c1Cl	173 °C
Fc1ccc2[nH]cc(C3=CCN(CC4COc5ccc6[nH]c(C(F)(F)F)nc6c5O4)CC3)c2c1 (stereo unspecified)	236 to 238 °C

Structure (SMILES)	melting point
COC(=O)c1nc(Br)c(F)c(NC(C)=O)c1Cl	190 to 192 °C
O=C(O)CCCCNC(=O)C(CS)Cc1ccccc1 (stereo unspecified)	78 to 79 °C
CCOc1cc(-c2cc(C(F)(F)F)n3ncc(C(=O)O)c3n2)ccc1C(F)(F)F	264 °C
CC1CCCN(S(=O)(=O)c2cc(Cl)cc(C(=O)O)c2)C1 (stereo unspecified)	177 to 179 °C
CCN(CC)CCNC(=O)c1cc(I)cc2c(=O)cc[nH]c12	141 to 143 °C
COc1c(-c2cc3c(s2)C(O)CCC3)ccc2c(=O)c(C(=O)O)cn(C3CC3)c12 (stereo unspecified)	238 to 240 °C
CC(=O)N1CCc2nc(N)nc(-c3ccc(Cl)cc3)c2C1	218 to 220 °C
O=C(O)c1[nH]c2cc(Cl)cc(Cl)c2c1C=C1NC(=O)N(c2ccccc2)C1=O	> 250 °C
Cc1cc(C(=O)CCc2cc(-c3ccc(C(F)(F)F)cc3)nn2Cc2ccccc2)ccc1OC(C)(C)C(=O)O	55 °C
CN(C)c1nc(NCc2ccc(NC(=O)C3CCN(Cc4ccccc4)CC3)cc2)c2ccc(I)cc2n1	194 °C
O=C(C1CC2(CCN1)OCCO2)N1CCCC1 (stereo unspecified)	72.5 to 74.5 °C
CNC(=S)NS(=O)(=O)c1cc(CCNC(=O)C=Cc2cccs2)ccc1OCC1CCCCO1 (stereo unspecified)	80 °C
CC1(C)OCC(NC2COC(C)(C)OC2)CO1	65 °C
CN(C)CC1CCc2cc(NC(=O)N3CCC(c4ccc(F)cc4)CC3)ccc2C1O (stereo unspecified)	160 to 163 °C
CCOc1ccc(C2=NN(c3ccc(C(=O)N4CCS(=O)(=O)CC4)cc3)C(=O)[C@H]3CC=CC[C@@H]23)cc1OCC (relative stereo)	186 to 187 °C
CC1Cc2c(N=C=O)ccc(Cl)c2O1 (stereo unspecified)	169 to 171 °C
CCC(=O)Nc1c([N+](=O)[O-])c(C(C)(C)C)nn1-c1c(Cl)cc(C(F)(F)F)cc1Cl	151 to 152 °C
O=C(O)c1ccc(OCC2CCCCC2)cc1	209 to 210 °C
Cn1c(COc2ccc(CC3SC(=O)N(C(c4ccccc4)(c4ccccc4)c4ccccc4)C3=O)cc2)nc2cccnc21 (stereo unspecified)	97 to 102 °C
O=C(O)C1=Cc2cc(OCc3ccccc3)c(OCc3ccccc3)cc2CC1	173 to 176 °C
COC(=O)C1c2c(C)c(O)c(C)c(C)c2OC1(C)C (stereo unspecified)	145 to 146 °C
CN(C)c1cc(CC(=O)O)cc(Cc2nc3c(F)c(F)cc(F)c3s2)c1	114 to 115 °C

More lines, now with the values ahead:

melting point	Structure (SMILES)
144 °C	Cc1c(O)ccc(C(=O)c2cccs2)c1C
106 to 108 °C	C[C@@H](O)c1nccc(N2CCN(c3cnc4ccccc4n3)CC2)n1
195 to 196 °C	CC(=O)Nc1c(C(=O)c2cccc(C)n2)[nH]c2cc(Cl)ccc12
119 to 121 °C	CC(C)(c1ccccc1)c1ccc(O)c(-n2nc3ccccc3n2)c1
130 to 132 °C	COc1ccc(C(=O)Nc2cnccc2Cl)cc1OC1CCCC1
124 to 125 °C	CN(C)CCNC(=O)Cn1c(-c2cccc(Cl)c2)nc2cccnc21
137 to 138 °C	Cc1c(C)n(CC2CC2)c2c(OCc3ccc(F)cc3)nncc12
51 to 52 °C	Fc1ccc(-c2cccs2)cc1
80 to 82 °C	COc1ccc(O)c(CSc2ccccc2CO)c1
123 to 125 °C	COc1ccc2cccc(C(C#N)O[Si](C)(C)C)c2c1 (stereo unspecified)
53 to 55 °C	CCCNc1nc(NCCC)nc(Nc2ccc(OC)c(F)c2)n1
186 to 188 °C	Cc1c(C)c2c(c(C)c1NC(=O)NCCO)C(c1ccc(C(C)C)cc1)CO2 (stereo unspecified)
> 250 °C	CCc1nc2c(N)nc3ccc(-c4cccnc4)cc3c2n1CC(C)C
180 to 183 °C	CCOC(=O)c1c(CCCCc2nccn2C)nc2cc(OC)c(OC)cc2c1-c1ccc(OC)c(OC)c1
251 to 252 °C	COc1ccc(Nc2cc(=O)n(-c3ccc(Cl)cc3)nc2-c2nc[nH]n2)cc1
131 to 135 °C	N#Cc1c(OCC2CO2)cccc1[N+](=O)[O-] (stereo unspecified)
104 to 105 °C	O=C(c1ccc(Br)cc1)c1cccc([N+](=O)[O-])c1
208 °C	COc1ccc(C(=O)Nc2ccc3ccc(Oc4ccccc4F)nc3n2)cc1
174 °C	COc1ccc2c(c1)[nH]c1c(C)c(OS(=O)(=O)c3cccc4c(N(C)C)cccc34)ccc12
137 °C	CCOC(=O)Nc1c(C(=O)OC)sc2cc(OC)ccc12
177 to 179 °C	CCOC(=O)C1=C(c2ccc(-n3c(C)nc4cnccc43)cc2)NC(C)=C(C(=O)OCCC#N)C1c1ccccc1Cl (stereo unspecified)
198 to 200 °C	CC(C)(C)c1cc2c(c(-c3nc4ncccc4o3)c1)CCC2
123 to 124 °C	O=C(c1ccc(Br)cc1)c1ccc([N+](=O)[O-])cc1
152 to 154 °C	CC(C)N1C(=O)c2cnc(-c3ccccc3)nc2N(C(=O)CN2CCCCC2)c2ccccc21
109 °C	Cn1cc(Cl)c2cc(C=O)ccc21
139 °C	COc1cc(C)cc(OC)c1NC(=O)CC(C)C

melting point	Structure (SMILES)
137 to 139 °C	COC(=O)[C@H](Cc1ccc([N+](=O)[O-])cc1)NC(=O)c1ccccc1F
257 to 259 °C	Cc1ccc(Cl)c(Nc2ccccc2-c2n[nH]c(=S)o2)c1Cl
110 to 111 °C	COc1ccc(CC(N(C)S(=O)(=O)c2ccc(C)cc2)C(C)(C)C(=O)Cl)cc1 (stereo unspecified)
60 to 61 °C	CC(C)(C)c1ccc(CNC(=O)NCc2ccc(NS(C)(=O)=O)c(Cl)c2)cc1
128 to 130 °C	CCCCOc1ccc(C(=O)Nc2ccc3cc(CN4CCCC4CC(C)C)cnc3c2C)cc1 (stereo unspecified)
159 to 162 °C	CCOC(=O)C(=Cc1c[nH]c2cc(C)ccc12)NC(C)=O
153 to 154 °C	COc1ccc(Br)cc1-c1cc(-c2ccc(Br)cc2)no1
141 °C	CCc1cc2c(NC(C)c3ccccc3)ncnc2s1 (stereo unspecified)
163 to 164 °C	Cc1oc(-c2ccc3ccccc3c2)nc1COc1ccc(C=O)cc1
170 to 172 °C	C#Cc1cccc(-c2nccc3nc(N)nn23)c1
226 °C	CCOC(=O)c1cn(C)c2cnc3cc(F)c(N4CCN(c5cccc(OC)c5)C(C)C4)cc3c2c1=O (stereo unspecified)
177 to 178 °C	CC(=O)Nc1ccc(OCC(=O)NC2CCN(Cc3ccc(Cl)c(Cl)c3)CC2)cc1
124 to 125 °C	N#CN1CCC(c2nn(-c3ccccc3)c3ccccc23)CC1
161 to 164 °C	COc1ccc(Cl)cc1C1OC(=O)N(C(C)=O)C1=O (stereo unspecified)
76 to 77 °C	CCCc1cc(Cl)c2oc(Cc3ccc(Cl)cc3)c(C)c2c1O
133 to 135 °C	COC(=O)CC(NC(=O)C(CSC(C)=O)Cc1ccccc1)c1ccc2ccccc2c1 (stereo unspecified)
71 °C	c1cc(-c2nccs2)nc(C2OCCO2)c1
231 °C	N#Cc1c(Cl)c2ccccc2n(Cc2ccc(F)cc2)c1=O
92 to 93 °C	COc1cccc(CC(=O)O)c1OCCCc1cn(-c2ccc(C(F)(F)F)nn2)nc1C(C)C
126 to 128 °C	CCNC(=O)c1cc(N)ccc1Oc1cncc(Cl)c1
140 to 143 °C	CC1(C)C2CCC1(C)C(C(=O)OC(CSc1ccccc1)(C(=O)Nc1ccc(C#N)c(C(F)(F)F)c1)C(F)(F)F)C2 (stereo unspecified)
178 to 180 °C	CC(C)(C)c1cc(C(=O)c2ccc([N+](=O)[O-])cc2)cc(C(C)(C)C)c1O
72.5 to 78.6 °C	O=c1c(Cc2cccnc2)cn2c3ccccc3c3cc(OCCCO)cc1c32
278 to 280 °C	CCOC(=O)/C=C/c1cc(F)c2ncc(C(=O)NCc3ccc(Cl)cc3)c(O)c2c1
163 to 164 °C	CCC(CC)c1nn(-c2ncc(C(F)(F)F)cn2)cc1CCCOc1c(CC(=O)O)cccc1OC

Source: a melting point compilation (Tetko et al.; mined from patent text by program, amines drawn as free bases though some values may be those of a salt)
